Among the data in the PolyMetriX glass transition set are glass transition temperature values, retold here.

Structures are written as SMILES.

Molecule `*/C(C)=C(/*)[Si](C)(C)C[Si](C)(C)C` (repeat unit) gave a glass transition temperature of 200.00 °C.

In turn, `*/C=C/CCCC(Cl)CCC*` (repeat unit) registered a glass transition temperature of -63.00 °C.

Molecule `*C(=O)CCCCCCCCC(=O)N1CCN(*)CC1` (repeat unit) came in with a glass transition temperature of 82.00 °C.

The molecule `*C(=O)CCCCCCCCC(=O)NC1CCCCN(*)C1` (repeat unit) came in with a glass transition temperature of -46.50 °C.

`*CC#C/C(C#CCOC(=O)CCCCCCCCC(=O)O*)=C\c1ccc(C#Cc2ccc([N+](=O)[O-])cc2)cc1` (repeat unit): the glass transition temperature amounted to 60.00 °C.

`*CC(CCCCCCOc1ccc(/N=N/c2ccc(Br)cc2)cc1)COC(=O)CCCCC(=O)O*` (repeat unit): the glass transition temperature is 24.00 °C.

`*CC(CCCCCCOc1ccc(/N=N/c2ccc(C(F)(F)F)cc2)cc1)COC(=O)CCCCC(=O)O*` (repeat unit): the glass transition temperature stood at 44.00 °C.

In turn, `*CC(CCCCCCOc1ccc(/N=N/c2ccc(Cl)cc2)cc1)COC(=O)CCCCC(=O)O*` (repeat unit) showed a glass transition temperature of 9.00 °C.

In turn, `*CC1CCCC(CNC(=O)CCCCC(=O)N*)C1` (repeat unit) showed a glass transition temperature of 107.00 °C.

With `*CCC1C(=O)N(CCCCCCCCCCCCCCCC)C(=O)C1*` (repeat unit), the glass transition temperature was found to be 65.60 °C.

Consider `*CCC1C(=O)N(c2ccc(N(C)C)cc2)C(=O)C1*` (repeat unit), for which the glass transition temperature is 195.00 °C.

`*CCC1CC(*)C2CCCC12` (repeat unit): the glass transition temperature stood at 101.00 °C.

Molecule `*CCC1C[N+](C)(C)CC1*` (repeat unit) had a glass transition temperature of -6.70 °C.

`*CCCC(*)(C)C(=O)O` (repeat unit) registered a glass transition temperature of 132.00 °C.

With `*CCCC(*)(C)CC` (repeat unit), the glass transition temperature was -23.00 °C.

Molecule `*CCCC(*)C` (repeat unit) returned a glass transition temperature of -52.60 °C.

With `*CCCC1(CCCNC(=O)CCCCC(=O)N*)c2ccccc2-c2ccccc21` (repeat unit), the glass transition temperature is 120.00 °C.

For `*CCCCC(c1ccc(O)cc1)C(*)c1ccc(O)cc1C` (repeat unit), the glass transition temperature was 25.00 °C.

In turn, `*CCCCCC(*)CC` (repeat unit) returned a glass transition temperature of -73.00 °C.

On to `*CCCCCC(*)CCC` (repeat unit), for which the glass transition temperature was -68.00 °C.

Turning to `*CCCCCC(*)CCCC` (repeat unit), the glass transition temperature was -69.00 °C.

Consider `*CCCCCC(*)CCCCCCCC` (repeat unit), for which the glass transition temperature is -72.00 °C.

Molecule `*CCCCCCCC(=O)OC1COC(*)OC1` (repeat unit) gave a glass transition temperature of 6.50 °C.

Molecule `*CCCCCCCCCCCCCCCCOC(=O)CCCCCCC(=O)O*` (repeat unit) displayed a glass transition temperature of -26.00 °C.

`*CCCCCCCCCCNC(=O)CCCCCCCCC(=O)N*` (repeat unit) came in with a glass transition temperature of 60.00 °C.

In turn, `*CCCCCCCCCNC(=O)CCCCC(=O)N*` (repeat unit) showed a glass transition temperature of 68.00 °C.

In the case of `*CCCCCCCCNC(=O)CCCCC(=O)N*` (repeat unit), the glass transition temperature stood at 50.00 °C.

`*CCCCCCCCOC(=O)NNC(=O)CCCCCCCCC(=O)NNC(=O)O*` (repeat unit): the glass transition temperature came to 38.00 °C.

`*CCCCCCOC(=O)CCCCC(=O)O*` (repeat unit) registered a glass transition temperature of -69.00 °C.

The molecule `*CCCCCCOC(=O)CCCCCNC(=O)CCCCC(=O)NCCCCCC(=O)O*` (repeat unit) returned a glass transition temperature of -7.00 °C.

Molecule `*CCCCCNC(=O)CCCCC(=O)N*` (repeat unit) gave a glass transition temperature of 46.50 °C.

Consider `*CCCCCOC(=O)CCCCC(=O)O*` (repeat unit), for which the glass transition temperature is -69.00 °C.

Take `*CCCCCOC(=O)NNC(=O)CCCCCCCCC(=O)NNC(=O)O*` (repeat unit): the glass transition temperature stood at 20.00 °C.

Consider `*CCCCOC(=O)NNC(=O)CCCCCCCCC(=O)NNC(=O)O*` (repeat unit), for which the glass transition temperature is 56.00 °C.

For `*CCCNC(=O)C(Cc1ccccc1)NC(=O)CCCCCCCCC(=O)NC(Cc1ccccc1)C(=O)NCCCOCCOCCO*` (repeat unit), the glass transition temperature is 44.00 °C.

`*CCCOC(=O)CCCC(=O)O*` (repeat unit) displayed a glass transition temperature of -33.00 °C.

`*CCOC(=O)CCCCC(=O)OCCOC(=O)c1ccc(C(=O)O*)cc1` (repeat unit) showed a glass transition temperature of 8.00 °C.

In turn, `*CCOCCOC(=O)CCCCCCCC(=O)O*` (repeat unit) displayed a glass transition temperature of -71.00 °C.

In turn, `*Cc1ccc(CNC(=O)CCCCCCCCC(=O)N*)cc1` (repeat unit) registered a glass transition temperature of 115.00 °C.

Turning to `*Cc1cccc(CNC(=O)CCCCC(=O)N*)c1` (repeat unit), the glass transition temperature turned out to be 84.00 °C.

As to `*NC1CCC(CC2CCC(NC(=O)CCCCCCCCC(*)=O)CC2)CC1` (repeat unit), the glass transition temperature was found to be 144.00 °C.

`*Nc1cc(NC(=O)CCCCC(*)=O)cc(-c2nnc(-c3ccccn3)o2)c1` (repeat unit) had a glass transition temperature of 159.00 °C.

As for `*Nc1cc(NC(=O)CCCCCCCCC(*)=O)cc(-c2nnc(-c3ccccn3)o2)c1` (repeat unit), the glass transition temperature was 85.00 °C.

Molecule `*Nc1cc(NC(=O)c2cc(OCCCS(=O)(=O)c3ccc(/N=N/c4ccc(N(C)C)cc4)cc3)cc(C(*)=O)c2)cc(C(=O)OCCCN(C)c2ccc(/N=N/c3ccc(S(C)(=O)=O)cc3)cc2)c1` (repeat unit) returned a glass transition temperature of 166.00 °C.

Turning to `*Nc1ccc(C(=O)c2ccc(NC(=O)c3cc(C(*)=O)cc(C(C)(C)C)c3)cc2)cc1` (repeat unit), the glass transition temperature was 271.00 °C.

`*Nc1ccc(C(c2ccc(NC(=O)c3cc(C(*)=O)cc(C(C)(C)C)c3)cc2)(C(F)(F)F)C(F)(F)F)cc1` (repeat unit): the glass transition temperature is 284.10 °C.

For the molecule `*Nc1ccc(C(c2ccc(NC(=O)c3cc(C(*)=O)cc(C(C)(C)C)c3)cc2)(P2(=O)Oc3ccccc3-c3ccccc32)P2(=O)Oc3ccccc3-c3ccccc32)cc1` (repeat unit), the glass transition temperature was found to be 235.00 °C.

For the molecule `*Nc1ccc(NC(=O)CCCCCC(*)=O)cc1` (repeat unit), the glass transition temperature stood at 133.00 °C.

`*Nc1ccc(NC(=O)CCCCCCCCC(*)=O)cc1` (repeat unit) displayed a glass transition temperature of 125.00 °C.

Molecule `*Nc1cccc(NC(=O)CCCCCCC(*)=O)c1` (repeat unit) returned a glass transition temperature of 115.50 °C.

For `*Nc1cccc(NC(=O)CCCCCCCCC(=O)Nc2ccc(C(=O)NC(*)=S)cc2)c1` (repeat unit), the glass transition temperature was 265.00 °C.

In the case of `*OC(=O)CCCCCCCCC(=O)OC1COC2C(*)COC12` (repeat unit), the glass transition temperature was 3.00 °C.

`*OC(=O)CNC(=O)CCCCCCCCC(=O)NCC(=O)OC1COC2C(*)COC12` (repeat unit) returned a glass transition temperature of 66.00 °C.

Consider `*OC1CCC(OC(=O)CCCCCCCCC(*)=O)CC1` (repeat unit), for which the glass transition temperature is 66.00 °C.

On to `*O[Si](C)(C)CCCC(=O)Oc1ccc(/C=N/c2ccc(Cc3ccc(/N=C/c4ccc(OC(=O)CCC[Si](*)(C)C)cc4)cc3)cc2)cc1` (repeat unit), for which the glass transition temperature was 68.00 °C.

As to `*O[Si](C)(C)O[Si](C)(C)O[Si](C)(C)OC(C)CCCCC(*)C` (repeat unit), the glass transition temperature was -94.00 °C.

`*Oc1ccc(-c2ccc(NC(=O)c3cc(C(=O)Nc4ccc(-c5ccc(Oc6ccc(C(C)(C)c7ccc(*)cc7)cc6)c(C(F)(F)F)c5)cc4)cc(C(C)(C)C)c3)cc2)cc1C(F)(F)F` (repeat unit) came in with a glass transition temperature of 248.50 °C.

The molecule `*Oc1ccc(C(=O)c2cccc(NC(=O)CCCCCCCCC(=O)Nc3cccc(C(=O)c4ccc(*)cc4)c3)c2)cc1` (repeat unit) registered a glass transition temperature of 141.00 °C.

`*Oc1ccc(C2(c3ccc(OC(=O)CCCCC(*)=O)cc3)c3ccccc3-c3ccccc32)cc1` (repeat unit) yielded a glass transition temperature of 166.00 °C.

The molecule `*Oc1ccc(NC(=O)CCCCC(=O)Nc2ccc(*)cc2)cc1` (repeat unit) came in with a glass transition temperature of 230.00 °C.

Take `*Oc1ccc(NC(=O)CCCCCCC(=O)Nc2ccc(OC3COC4C(*)COC34)cc2)cc1` (repeat unit): the glass transition temperature was 72.50 °C.

The molecule `*Oc1ccc(NC(=O)CCCCCCCC(=O)Nc2ccc(*)cc2)cc1` (repeat unit) yielded a glass transition temperature of 160.00 °C.

`*Oc1ccccc1C(=O)OC(=O)c1ccccc1OC(=O)CCCC(*)=O` (repeat unit): the glass transition temperature turned out to be 50.00 °C.

Molecule `*Oc1ccccc1C(=O)OC(=O)c1ccccc1OC(=O)CCCCC(*)=O` (repeat unit) returned a glass transition temperature of 55.00 °C.

Consider `*Oc1ccccc1C(=O)OC(=O)c1ccccc1OC(=O)CCCCCC(*)=O` (repeat unit), for which the glass transition temperature was determined as 40.00 °C.

`*Oc1ccccc1C(=O)OC(=O)c1ccccc1OC(=O)CCCCCCC(*)=O` (repeat unit) came in with a glass transition temperature of 28.00 °C.

Consider `*Oc1ccccc1C(=O)OC(=O)c1ccccc1OC(=O)CCCCCCCC(*)=O` (repeat unit), for which the glass transition temperature was 25.00 °C.

For the molecule `*c1ccc2c(c1)C(=O)N(c1cc(C(=O)Nc3c(C)cc(-c4cc(C)c(NC(=O)c5ccc(C)c(N6C(=O)c7ccc(C(*)(C(F)(F)F)C(F)(F)F)cc7C6=O)c5)c(C)c4)cc3C)ccc1C)C2=O` (repeat unit), the glass transition temperature was found to be 250.00 °C.

`*c1ccc2c(c1)C(=O)N(c1ccc(C(=O)Nc3ccc(C(c4ccc(NC(=O)c5ccc(N6C(=O)c7ccc(C(*)(C(F)(F)F)C(F)(F)F)cc7C6=O)c(C)c5)cc4)(C(F)(F)F)C(F)(F)F)cc3)cc1C)C2=O` (repeat unit) yielded a glass transition temperature of 344.00 °C.

With `*c1ccc2c(c1)C(=O)N(c1cccc(C(=O)Nc3ccc(C(c4ccc(NC(=O)c5cccc(N6C(=O)c7ccc(C(*)(C(F)(F)F)C(F)(F)F)cc7C6=O)c5C)cc4)(C(F)(F)F)C(F)(F)F)cc3)c1C)C2=O` (repeat unit), the glass transition temperature worked out at 250.00 °C.

The molecule `*c1cccc(NC(=O)CCCCCCC(=O)Nc2cccc(S(*)(=O)=O)c2)c1` (repeat unit) displayed a glass transition temperature of 125.00 °C.
